Assay [1] deals with microfilariae of Dirofilaria immitis. The assay can be described thus: Dirofilaria immitis, Microfilaria (DiMF) In vitro Assay. The conditions noted are these: 72 h, read-out: DiMF Minimum Effective Dose (MED), approximately 72 hours incubation, microfilariae assessed for survival or paralysis. Format: cell-based.
Assay [2] deals with third stage larvae of Haemonchus contortus. In words: Haemonchus contortus L3 (HcL3) Assay. Format: cell-based. Particulars: 96 h, read-out: HcL3 Minimum Effective Dose (MED).

For 13 compounds, minimal effective concentration results are on record in patent US11331369B2, “Endoparasitic depsipeptides” (Zoetis Services LLC, priority 2017, dated 2022).

With `CC(C)C[C@H]1C(=O)O[C@H](Cc2ccc(Cn3nc(C4CC4)cc3C3CC3)cc2)C(=O)N(C)[C@@H](CC(C)C)C(=O)O[C@H](C)C(=O)N(C)[C@@H](CC(C)C)C(=O)O[C@H](Cc2ccc(Cn3nc(CO)cc3C3CC3)cc2)C(=O)N(C)[C@@H](CC(C)C)C(=O)O[C@H](C)C(=O)N1C` [Example 1a-14, (3S,6R,9S,12R,15S,18R,21S,24R)-6-(4-((5-cyclopropyl-3-(hydroxymethyl)-1H-pyrazol-1-yl)methyl)benzyl)-18-(4-((3,5-dicyclopropyl-1H-pyrazol-1-yl)methyl)benzyl)-3,9,15,21-tetraisobutyl-4,10,12,16,22,24-hexamethyl-1,7,13,19-tetraoxa-4,10,16,22-tetraazacyclotetracosan-2,5,8,11,14,17,20,23-octaone], the minimal effective concentration in assay [1] is 0.01 to 0.1 µM; in assay [2], 1 to 10 µM.
For `CC(C)C[C@H]1C(=O)O[C@H](Cc2ccc(Cn3cc(C(C)(C)C)cn3)cc2)C(=O)N(C)[C@@H](CC(C)C)C(=O)O[C@H](C)C(=O)N(C)[C@@H](CC(C)C)C(=O)O[C@H](Cc2ccc(Cn3cccn3)cc2)C(=O)N(C)[C@@H](CC(C)C)C(=O)O[C@H](C)C(=O)N1C` [Example 1a-17, (3S,6R,9S,12R,15S,18R,21S,24R)-6-(4-((1H-pyrazol-1-yl)methyl)benzyl)-18-(4-((4-(tert-butyl)-1H-pyrazol-1-yl)methyl)benzyl)-3,9,15,21-tetraisobutyl-4,10,12,16,22,24-hexamethyl-1,7,13,19-tetraoxa-4,10,16,22-tetraazacyclotetracosan-2,5,8,11,14,17,20,23-octaone], the figures for the minimal effective concentration in assay [1] and in assay [2] were 0.001 to 0.01 µM and 1 to 10 µM, respectively.
As to `CC(C)C[C@H]1C(=O)O[C@H](Cc2ccc(Cn3nccc3OC(C)C)cc2)C(=O)N(C)[C@@H](CC(C)C)C(=O)O[C@H](C)C(=O)N(C)[C@@H](CC(C)C)C(=O)O[C@H](Cc2ccc(Cn3ccc(OC(C)C)n3)cc2)C(=O)N(C)[C@@H](CC(C)C)C(=O)O[C@H](C)C(=O)N1C` [Example 1a-35, (3S,6R,9S,12R,15S,18R,21S,24R)-3,9,15,21-tetraisobutyl-6-(4-((3-isopropoxy-1H-pyrazol-1-yl)methyl)benzyl)-18-(4-((5-isopropoxy-1H-pyrazol-1-yl)methyl)benzyl)-4,10,12,16,22,24-hexamethyl-1,7,13,19-tetraoxa-4,10,16,22-tetraazacyclotetracosan-2,5,8,11,14,17,20,23-octaone], the minimal effective concentration was in the range of 0.01 to 0.1 µM in assay [1] and 1 to 10 µM in assay [2].
As to `Cc1cnn(Cc2ccc(C[C@H]3OC(=O)[C@H](CC(C)C)N(C)C(=O)[C@@H](C)OC(=O)[C@H](CC(C)C)N(C)C(=O)[C@@H](Cc4ccc(Cn5cc(C)cn5)cc4)OC(=O)[C@H](CC(C)C)N(C)C(=O)[C@@H](C)OC(=O)[C@H](CC(C)C)N(C)C3=O)cc2)c1` [Example 1b-24, (3S,6R,9S,12R,15S,18R,21S,24R)-3,9,15,21-tetraisobutyl-4,6,10,16,18,22-hexamethyl-12,24-bis[[4-[(4-methylpyrazol-1-yl)methyl]phenyl]methyl]-1,7,13,19-tetraoxa-4,10,16,22-tetrazacyclotetracosane-2,5,8,11,14,17,20,23-octaone], the minimal effective concentration in assay [1] was in the range of 0.001 to 0.01 µM; in assay [2], 1 to 10 µM.
As to `Cc1cc(C)n(Cc2ccc(C[C@H]3OC(=O)[C@H](CC(C)C)N(C)C(=O)[C@@H](C)OC(=O)[C@H](CC(C)C)N(C)C(=O)[C@@H](Cc4ccc(Cn5nc(C)cc5C)cc4)OC(=O)[C@H](CC(C)C)N(C)C(=O)[C@@H](C)OC(=O)[C@H](CC(C)C)N(C)C3=O)cc2)n1` [Example 1b-29, (3S,6R,9S,12R,15S,18R,21S,24R)-6,18-bis[[4-[(3,5-dimethylpyrazol-1-yl)methyl]phenyl]methyl]-3,9,15,21-tetraisobutyl-4,10,12,16,22,24-hexamethyl-1,7,13,19-tetraoxa-4,10,16,22-tetrazacyclotetracosane-2,5,8,11,14,17,20,23-octaone], the minimal effective concentration was 0.001 to 0.01 µM in assay [1] and 1 to 10 µM in assay [2].
On to `COc1cnn(Cc2ccc(C[C@H]3OC(=O)[C@H](CC(C)C)N(C)C(=O)[C@@H](C)OC(=O)[C@H](CC(C)C)N(C)C(=O)[C@@H](Cc4ccc(Cn5cc(OC)cn5)cc4)OC(=O)[C@H](CC(C)C)N(C)C(=O)[C@@H](C)OC(=O)[C@H](CC(C)C)N(C)C3=O)cc2)c1` [Example 1b-52, (3S,6R,9S,12R,15S,18R,21S,24R)-3,9,15,21-tetraisobutyl-6,18-bis(4-((4-methoxy-1H-pyrazol-1-yl)methyl)benzyl)-4,10,12,16,22,24-hexamethyl-1,7,13,19-tetraoxa-4,10,16,22-tetraazacyclotetracosan-2,5,8,11,14,17,20,23-octaone], for which the minimal effective concentration in assay [1] is 0.001 to 0.01 µM; in assay [2], 1 to 10 µM.
Taken in the same sequence, the figures for `Cc1ccn(Cc2ccc(C[C@H]3OC(=O)[C@H](CC(C)C)N(C)C(=O)[C@@H](C)OC(=O)[C@H](CC(C)C)N(C)C(=O)[C@@H](Cc4ccc(Cn5ccc(C)n5)cc4)OC(=O)[C@H](CC(C)C)N(C)C(=O)[C@@H](C)OC(=O)[C@H](CC(C)C)N(C)C3=O)cc2)n1` [Example 1b-94, (3S,6R,9S,12R,15S,18R,21S,24R)-3,9,15,21-tetraisobutyl-4,6,10,16,18,22-hexamethyl-12,24-bis(4-((3-methyl-1H-pyrazol-1-yl)methyl)benzyl)-1,7,13,19-tetraoxa-4,10,16,22-tetraazacyclotetracosan-2,5,8,11,14,17,20,23-octaone] were 0.001 to 0.01 µM and no more than 1 µM.
Taken in the same sequence, the figures for `CCc1ccn(Cc2ccc(C[C@H]3OC(=O)[C@H](CC(C)C)N(C)C(=O)[C@@H](C)OC(=O)[C@H](CC(C)C)N(C)C(=O)[C@@H](Cc4ccc(Cn5ccc(CC)n5)cc4)OC(=O)[C@H](CC(C)C)N(C)C(=O)[C@@H](C)OC(=O)[C@H](CC(C)C)N(C)C3=O)cc2)n1` [Example 1b-95, (3S,6R,9S,12R,15S,18R,21S,24R)-6,18-bis(4-((3-ethyl-1H-pyrazol-1-yl)methyl)benzyl)-3,9,15,21-tetraisobutyl-4,10,12,16,22,24-hexamethyl-1,7,13,19-tetraoxa-4,10,16,22-tetraazacyclotetracosan-2,5,8,11,14,17,20,23-octaone] were 0.001 to 0.01 µM and 1 to 10 µM.
As to `Cc1nn(Cc2ccc(C[C@H]3OC(=O)[C@H](CC(C)C)N(C)C(=O)[C@@H](C)OC(=O)[C@H](CC(C)C)N(C)C(=O)[C@@H](Cc4ccc(Cn5nc(C)c(F)c5C)cc4)OC(=O)[C@H](CC(C)C)N(C)C(=O)[C@@H](C)OC(=O)[C@H](CC(C)C)N(C)C3=O)cc2)c(C)c1F` [Example 1b-110, (3S,6R,9S,12R,15S,18R,21S,24R)-6,18-bis(4-((4-fluoro-3,5-dimethyl-1H-pyrazol-1-yl)methyl)benzyl)-3,9,15,21-tetraisobutyl-4,10,12,16,22,24-hexamethyl-1,7,13,19-tetraoxa-4,10,16,22-tetraazacyclotetracosan-2,5,8,11,14,17,20,23-octaone], the minimal effective concentration in assay [1] fell in the range of 0.01 to 0.1 µM; in assay [2] it was 1 to 10 µM.
Taken in the same sequence, the figures for `CC(C)C[C@H]1C(=O)O[C@H](Cc2ccc(Cn3nc(C4CC4)c(N)c3C3CC3)cc2)C(=O)N(C)[C@@H](CC(C)C)C(=O)O[C@H](C)C(=O)N(C)[C@@H](CC(C)C)C(=O)O[C@H](Cc2ccc(Cn3nc(C4CC4)c(N)c3C3CC3)cc2)C(=O)N(C)[C@@H](CC(C)C)C(=O)O[C@H](C)C(=O)N1C` [Example 1b-145, (3S,6R,9S,12R,15S,18R,21S,24R)-6,18-bis(4-((4-amino-3,5-dicyclopropyl-1H-pyrazol-1-yl)methyl)benzyl)-3,9,15,21-tetraisobutyl-4,10,12,16,22,24-hexamethyl-1,7,13,19-tetraoxa-4,10,16,22-tetraazacyclotetracosan-2,5,8,11,14,17,20,23-octaone] were 0.001 to 0.01 µM and 1 to 10 µM.
`CC(C)C[C@H]1C(=O)O[C@H](Cc2ccc(Cn3nccc3C3(C)CCOCC3)cc2)C(=O)N(C)[C@@H](CC(C)C)C(=O)O[C@H](C)C(=O)N(C)[C@@H](CC(C)C)C(=O)O[C@H](Cc2ccc(Cn3nccc3C3(C)CCOCC3)cc2)C(=O)N(C)[C@@H](CC(C)C)C(=O)O[C@H](C)C(=O)N1C` [Example 1b-213, (3S,6R,9S,12R,15S,18R,21S,24R)-3,9,15,21-tetraisobutyl-4,6,10,16,18,22-hexamethyl-12,24-bis(4-((5-(4-methyltetrahydro-2H-pyran-4-yl)-1H-pyrazol-1-yl)methyl)benzyl)-1,7,13,19-tetraoxa-4,10,16,22-tetraazacyclotetracosan-2,5,8,11,14,17,20,23-octaone]: the results for the minimal effective concentration in assay [1] and in assay [2] were 0.001 to 0.01 µM and 1 to 10 µM, respectively.
For the compound `COC(C)(C)Cc1ccnn1Cc1ccc(C[C@H]2OC(=O)[C@H](CC(C)C)N(C)C(=O)[C@@H](C)OC(=O)[C@H](CC(C)C)N(C)C(=O)[C@@H](Cc3ccc(Cn4nccc4CC(C)(C)OC)cc3)OC(=O)[C@H](CC(C)C)N(C)C(=O)[C@@H](C)OC(=O)[C@H](CC(C)C)N(C)C2=O)cc1` [Example 1b-214, (3S,6R,9S,12R,15S,18R,21S,24R)-3,9,15,21-tetraisobutyl-6,18-bis(4-((5-(2-methoxy-2-methylpropyl)-1H-pyrazol-1-yl)methyl)benzyl)-4,10,12,16,22,24-hexamethyl-1,7,13,19-tetraoxa-4,10,16,22-tetraazacyclotetracosan-2,5,8,11,14,17,20,23-octaone], the minimal effective concentration lay in the range of 0.01 to 0.1 µM in assay [1] and 1 to 10 µM in assay [2].
Take `Cc1cnn(Cc2ccc(C[C@H]3OC(=O)[C@H](CC(C)C)N(C)C(=O)[C@@H](C)OC(=O)[C@H](CC(C)C)N(C)C(=O)[C@@H](Cc4ccccc4)OC(=O)[C@H](CC(C)C)N(C)C(=O)[C@@H](C)OC(=O)[C@H](CC(C)C)N(C)C3=O)cc2)c1` [Example 2-2, (3S,6R,9S,12R,15S,18R,21S,24R)-6-benzyl-3,9,15,21-tetraisobutyl-4,10,12,16,22,24-hexamethyl-18-[[4-[(4-methylpyrazol-1-yl)methyl]phenyl]methyl]-1,7,13,19-tetraoxa-4,10,16,22-tetrazacyclotetracosane-2,5,8,11,14,17,20,23-octaone]: the minimal effective concentration in assay [1] is 0.001 to 0.01 µM; in assay [2] it was 1 to 10 µM.
